The text below walks through data of the NIST ThermoML archive (doi:10.1016/j.fluid.2004.10.027).

± gives the expanded uncertainty stated by the source.

For series [1] the following is noted: Liquid; for mass density: 298.15 K, 101.33 kPa.
The nature of series [2]: refractive index (Na D-line) (dimensionless). The conditions noted are these: 298.15 K; 101.33 kPa; Liquid; Standard Abbe refractometry.

With `COCCOC` [1,2-dimethoxyethane], the mass density in series [1] is on record as 863.7 ± 1.8 kg/m3. Further, in series [1] (357.05 K), the “vapor or sublimation pressure” value is 95.8 ± 4.8 kPa. Moreover, the refractive index in series [2] came to 1.3781 ± 0.0007.
As for `Cc1ccc(C)cc1` [1,4-dimethylbenzene], the mass density in series [1] was determined as 865.6 ± 4.7 kg/m3. Besides, in series [1] (409.35 K), the “vapor or sublimation pressure” value is recorded as 95.8 ± 4.8 kPa. In addition, in series [2], the refractive index was 1.4933 ± 0.0007.
As to `Cc1ccccc1C` [1,2-dimethylbenzene], in series [1], the mass density came out at 875.9 ± 1.7 kg/m3. The “vapor or sublimation pressure” value in series [1] (415.55 K) was found to be 95.8 ± 4.8 kPa. For the same molecule, in series [2], the refractive index is on record as 1.503 ± 0.0007.
Consider `CCCCCCCCCC` [decane], for which the mass density in series [1] is 726.4 ± 2.9 kg/m3. Besides, the “vapor or sublimation pressure” value in series [1] (445.25 K) is 95.8 ± 4.9 kPa. Also, in series [2], the refractive index stood at 1.4097 ± 0.0007.
Take `O=C1CCCCC1` [cyclohexanone]: the mass density in series [1] was determined as 945.1 ± 1.1 kg/m3. Further, in series [1] (426.45 K), the “vapor or sublimation pressure” value worked out at 95.8 ± 4.8 kPa. In series [2], the refractive index was 1.451 ± 0.0007.
As to `Cc1cccc(C)c1` [1,3-dimethylbenzene], the mass density in series [1] was 860.1 ± 1.8 kg/m3. The “vapor or sublimation pressure” value in series [1] (410.35 K) was found to be 95.8 ± 4.8 kPa. Further, the refractive index in series [2] came to 1.4946 ± 0.0007.
Consider `C1CCOC1` [tetrahydrofuran], for which the mass density in series [1] worked out at 889.2 ± 4.7 kg/m3. Further, the “vapor or sublimation pressure” value in series [1] (337.55 K) is 95.8 ± 4.8 kPa. For the same molecule, in series [2], the refractive index was 1.4072 ± 0.0007.

What is called mass density is mass per unit of volume. In general, vapor or sublimation pressure refers to the equilibrium pressure above the liquid or solid. As a reminder, the refractive index is a measure of how strongly the sample bends light.
